Assay results published in US10168342B2, “Lipid probes and uses thereof” (THE SCRIPPS RESEARCH INSTITUTE, priority 2015, dated 2019).
Where two headings read alike, the source gives them in different places.

Experiments:
[1] = molecular target: AEA-DA lipid probe targets in Neuro2a cells (Mus musculus, UniProt Q62261)
[2] = molecular target: T1, AEA-DA lipid probe targets in Neuro2a cells (Mus musculus, UniProt Q8K0C4)
T1 sequence (Q8K0C4 1-503): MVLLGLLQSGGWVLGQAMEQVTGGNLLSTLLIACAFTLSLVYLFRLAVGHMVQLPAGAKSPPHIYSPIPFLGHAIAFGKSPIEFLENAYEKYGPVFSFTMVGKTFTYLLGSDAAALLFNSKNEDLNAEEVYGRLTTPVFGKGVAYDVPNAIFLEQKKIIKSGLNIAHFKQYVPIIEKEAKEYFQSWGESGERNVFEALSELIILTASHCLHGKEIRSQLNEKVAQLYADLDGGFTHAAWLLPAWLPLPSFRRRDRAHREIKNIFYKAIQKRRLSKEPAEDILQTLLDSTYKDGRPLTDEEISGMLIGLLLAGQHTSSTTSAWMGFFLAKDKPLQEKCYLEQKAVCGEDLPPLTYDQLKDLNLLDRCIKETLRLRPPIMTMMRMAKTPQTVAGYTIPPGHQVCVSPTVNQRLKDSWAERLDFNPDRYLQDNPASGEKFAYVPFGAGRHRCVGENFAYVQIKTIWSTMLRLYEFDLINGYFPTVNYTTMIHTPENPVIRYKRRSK

[3] = molecular target: T2, AEA-DA lipid probe targets in Neuro2a cells (Mus musculus, UniProt Q0VGU4)
T2 sequence (Q0VGU4 24-617): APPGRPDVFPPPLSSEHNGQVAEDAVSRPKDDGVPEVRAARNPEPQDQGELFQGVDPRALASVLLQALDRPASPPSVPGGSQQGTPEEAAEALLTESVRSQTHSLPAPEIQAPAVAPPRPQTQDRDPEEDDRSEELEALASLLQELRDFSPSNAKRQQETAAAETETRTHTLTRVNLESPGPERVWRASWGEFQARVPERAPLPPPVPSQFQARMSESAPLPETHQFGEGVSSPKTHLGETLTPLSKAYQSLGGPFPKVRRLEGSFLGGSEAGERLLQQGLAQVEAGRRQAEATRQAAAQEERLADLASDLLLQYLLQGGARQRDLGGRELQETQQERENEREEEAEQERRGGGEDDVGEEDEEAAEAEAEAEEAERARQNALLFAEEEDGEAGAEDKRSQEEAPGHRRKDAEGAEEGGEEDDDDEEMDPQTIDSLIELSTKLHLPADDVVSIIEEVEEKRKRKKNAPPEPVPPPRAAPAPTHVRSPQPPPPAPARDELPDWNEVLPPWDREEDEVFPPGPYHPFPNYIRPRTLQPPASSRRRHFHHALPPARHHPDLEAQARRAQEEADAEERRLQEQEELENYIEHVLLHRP

[4] = molecular target: T3, AEA-DA lipid probe targets in Neuro2a cells (Mus musculus, UniProt Q8VC28)
T3 sequence (Q8VC28 1-323): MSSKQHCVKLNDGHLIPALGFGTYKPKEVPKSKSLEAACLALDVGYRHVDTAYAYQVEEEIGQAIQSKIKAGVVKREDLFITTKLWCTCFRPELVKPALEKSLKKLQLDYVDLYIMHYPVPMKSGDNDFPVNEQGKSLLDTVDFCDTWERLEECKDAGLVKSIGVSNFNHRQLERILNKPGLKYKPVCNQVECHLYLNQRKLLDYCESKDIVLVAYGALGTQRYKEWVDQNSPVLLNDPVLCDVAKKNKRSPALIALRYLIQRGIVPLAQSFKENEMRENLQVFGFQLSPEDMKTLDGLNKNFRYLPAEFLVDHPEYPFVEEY

[5] = molecular target: T4, AEA-DA lipid probe targets in Neuro2a cells (Mus musculus, UniProt Q8CHK3)
T4 sequence (Q8CHK3 1-473): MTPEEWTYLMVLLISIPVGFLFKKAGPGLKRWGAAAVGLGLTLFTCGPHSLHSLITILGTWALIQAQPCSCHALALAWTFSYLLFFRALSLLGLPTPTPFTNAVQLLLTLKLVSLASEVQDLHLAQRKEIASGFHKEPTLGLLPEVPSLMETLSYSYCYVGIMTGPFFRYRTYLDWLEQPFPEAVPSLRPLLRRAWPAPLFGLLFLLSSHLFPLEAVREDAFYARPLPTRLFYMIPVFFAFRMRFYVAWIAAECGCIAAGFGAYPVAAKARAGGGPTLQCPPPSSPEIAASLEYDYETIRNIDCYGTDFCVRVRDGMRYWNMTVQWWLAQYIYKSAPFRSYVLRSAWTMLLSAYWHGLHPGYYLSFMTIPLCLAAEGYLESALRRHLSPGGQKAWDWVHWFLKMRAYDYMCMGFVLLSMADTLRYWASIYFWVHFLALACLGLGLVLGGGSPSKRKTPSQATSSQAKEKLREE

AEA-DA lipid probe targets in Neuro2a cells (Mus musculus, UniProt Q62261), sequence (Q62261 whole entry): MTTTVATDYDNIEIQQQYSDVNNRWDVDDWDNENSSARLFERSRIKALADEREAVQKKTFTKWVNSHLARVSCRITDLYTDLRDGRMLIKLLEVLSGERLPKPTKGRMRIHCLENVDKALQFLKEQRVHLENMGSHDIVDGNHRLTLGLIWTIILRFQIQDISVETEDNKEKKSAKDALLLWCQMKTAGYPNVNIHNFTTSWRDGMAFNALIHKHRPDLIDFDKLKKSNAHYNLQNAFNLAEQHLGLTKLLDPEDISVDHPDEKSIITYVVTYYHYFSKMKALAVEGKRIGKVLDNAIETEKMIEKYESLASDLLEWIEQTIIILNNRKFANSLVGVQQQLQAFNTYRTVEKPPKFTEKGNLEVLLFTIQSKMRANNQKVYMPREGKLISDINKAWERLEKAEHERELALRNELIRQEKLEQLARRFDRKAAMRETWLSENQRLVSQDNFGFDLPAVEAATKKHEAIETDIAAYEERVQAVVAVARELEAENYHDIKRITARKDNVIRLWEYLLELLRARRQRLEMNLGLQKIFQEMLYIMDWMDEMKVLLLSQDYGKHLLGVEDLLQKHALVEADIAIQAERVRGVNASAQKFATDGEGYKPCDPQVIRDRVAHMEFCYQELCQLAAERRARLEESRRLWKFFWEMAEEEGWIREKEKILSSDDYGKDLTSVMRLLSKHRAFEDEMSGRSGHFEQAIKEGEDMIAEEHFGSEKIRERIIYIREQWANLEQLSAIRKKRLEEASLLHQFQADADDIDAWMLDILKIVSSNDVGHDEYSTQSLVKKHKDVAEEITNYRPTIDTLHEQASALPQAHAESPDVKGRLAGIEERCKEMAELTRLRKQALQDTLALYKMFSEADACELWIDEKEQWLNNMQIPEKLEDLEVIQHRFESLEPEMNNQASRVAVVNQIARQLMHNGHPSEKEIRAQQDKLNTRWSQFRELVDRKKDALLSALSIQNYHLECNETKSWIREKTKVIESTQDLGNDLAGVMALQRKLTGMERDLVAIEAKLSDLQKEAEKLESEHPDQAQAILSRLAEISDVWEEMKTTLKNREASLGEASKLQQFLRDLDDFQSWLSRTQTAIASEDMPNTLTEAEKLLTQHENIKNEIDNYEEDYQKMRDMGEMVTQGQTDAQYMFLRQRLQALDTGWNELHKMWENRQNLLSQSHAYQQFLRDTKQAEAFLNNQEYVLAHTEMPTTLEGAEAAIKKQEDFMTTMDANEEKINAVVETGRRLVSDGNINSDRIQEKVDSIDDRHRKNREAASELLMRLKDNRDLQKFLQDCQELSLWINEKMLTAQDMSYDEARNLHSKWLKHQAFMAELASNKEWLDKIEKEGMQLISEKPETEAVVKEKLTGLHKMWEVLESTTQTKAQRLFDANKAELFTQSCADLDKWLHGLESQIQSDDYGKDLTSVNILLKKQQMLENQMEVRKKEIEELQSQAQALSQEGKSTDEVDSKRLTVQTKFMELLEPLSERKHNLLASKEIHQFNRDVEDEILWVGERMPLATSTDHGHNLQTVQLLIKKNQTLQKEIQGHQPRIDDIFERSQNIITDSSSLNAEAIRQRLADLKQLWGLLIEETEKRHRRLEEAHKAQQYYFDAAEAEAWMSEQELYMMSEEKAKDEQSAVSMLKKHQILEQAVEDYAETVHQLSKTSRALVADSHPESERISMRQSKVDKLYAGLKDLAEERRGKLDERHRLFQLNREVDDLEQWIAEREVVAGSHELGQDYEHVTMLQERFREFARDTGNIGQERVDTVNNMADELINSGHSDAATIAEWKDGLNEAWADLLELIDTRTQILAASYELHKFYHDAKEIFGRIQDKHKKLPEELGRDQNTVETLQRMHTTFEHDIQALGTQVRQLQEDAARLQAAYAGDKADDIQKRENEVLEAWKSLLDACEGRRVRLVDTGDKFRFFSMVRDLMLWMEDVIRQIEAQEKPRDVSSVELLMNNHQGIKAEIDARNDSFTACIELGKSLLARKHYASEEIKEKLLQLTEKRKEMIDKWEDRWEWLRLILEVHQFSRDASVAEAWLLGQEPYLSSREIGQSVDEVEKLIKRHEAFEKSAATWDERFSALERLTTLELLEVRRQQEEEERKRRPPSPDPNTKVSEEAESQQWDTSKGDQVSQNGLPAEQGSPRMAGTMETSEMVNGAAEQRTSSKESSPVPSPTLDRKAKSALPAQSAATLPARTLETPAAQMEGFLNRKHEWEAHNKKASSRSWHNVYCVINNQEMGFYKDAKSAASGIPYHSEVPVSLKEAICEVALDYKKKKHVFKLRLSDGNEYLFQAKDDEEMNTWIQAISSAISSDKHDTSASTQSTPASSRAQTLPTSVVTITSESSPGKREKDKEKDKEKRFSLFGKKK

Row | Structure (SMILES) | SILAC ratio Sptbn1 ([1]; competitor 25 μM) | SILAC ratio Cyp51a1 ([2]; competitor 25 μM) | SILAC ratio, Vgf ([3]; competitor 25 μM) | SILAC ratio, Mboat7 ([5]; competitor 25 μM) | SILAC ratio Akr1c13 ([4]; competitor 25 μM) | also measured
1 | CCCCC/C=C\C/C=C\C/C=C\C/C=C\CCCC(=O)NCCO [AEA, anandamide, reference compound] | – | – | – | – | – | SILAC ratio Sptbn1 ([1]; competitor 200 μM): 1.1; SILAC ratio Cyp51a1 ([2]; competitor 200 μM): 1.8; SILAC ratio, Vgf ([3]; competitor 200 μM): 1.0; SILAC ratio Akr1c13 ([4]; competitor 200 μM): 1.7
2 | O=C(/C=C/c1cccnc1)NCCCCC1CCN(C(=O)c2ccccc2)CC1 [FK-866, reference compound] | 1.3 | 1.5 | 1.1 | 1.1 | 1.0 | –
3 | CN1CCN(C(=O)c2c(-c3ccccc3)c3cc([N+](=O)[O-])ccc3n2C)CC1 [KML110, (1-Methyl-5-nitro-3-phenyl-1H-indol-2-yl)(4-methylpiperazin-1-yl)methanone] | 1.2 | 1.2 | 1.4 | 1.7 | 1.1 | –
4 | CN1CCN(C(=O)c2[nH]c3ccc([N+](=O)[O-])cc3c2-c2ccccc2)CC1 [MJN228, (4-Methylpiperazin-1-yl)(5-nitro-3-phenyl-1H-indol-2-yl)methanone] | 1.2 | 2.2 | 1.3 | 1.6 | 1.0 | SILAC ratio Sptbn1 ([1]; competitor 10 μM): 1.0; SILAC ratio Sptbn1 ([1]; competitor 100 μM): 1.3; SILAC ratio Cyp51a1 ([2]; competitor 10 μM): 1.5; SILAC ratio Cyp51a1 ([2]; competitor 50 μM): 2.3; SILAC ratio Cyp51a1 ([2]; competitor 100 μM): 3.1; SILAC ratio, Vgf ([3]; competitor 10 μM): 1.3; SILAC ratio, Vgf ([3]; competitor 50 μM): 1.1; SILAC ratio, Vgf ([3]; competitor 100 μM): 1.0; SILAC ratio, Mboat7 ([5]; competitor 10 μM): 1.2; SILAC ratio, Mboat7 ([5]; competitor 50 μM): 1.9; SILAC ratio, Mboat7 ([5]; competitor 100 μM): 2.3; SILAC ratio Akr1c13 ([4]; competitor 50 μM): 1.0
5 | C=CCN(C)CCCCCCOc1ccc(C(=O)c2ccc(Br)cc2)c(F)c1 [Ro 48-8071, reference compound] | 1.0 | 1.3 | 0.9 | 1.1 | 1.0 | –
